# Measurements taken from patent US20260297109A1, “COMPOUNDS AS SUMO ACTIVATING ENZYME INHIBITORS” (WIGEN BIOMEDICINE TECHNOLOGY (SHANGHAI) CO., LTD., priority 2022, published 2026).
# Target: T1, SAE (Homo sapiens, UniProt Q9UBT2)
# T1 construct: endogenous in cells; host or cells: HCT116
# T1 sequence (Q9UBT2 1-640): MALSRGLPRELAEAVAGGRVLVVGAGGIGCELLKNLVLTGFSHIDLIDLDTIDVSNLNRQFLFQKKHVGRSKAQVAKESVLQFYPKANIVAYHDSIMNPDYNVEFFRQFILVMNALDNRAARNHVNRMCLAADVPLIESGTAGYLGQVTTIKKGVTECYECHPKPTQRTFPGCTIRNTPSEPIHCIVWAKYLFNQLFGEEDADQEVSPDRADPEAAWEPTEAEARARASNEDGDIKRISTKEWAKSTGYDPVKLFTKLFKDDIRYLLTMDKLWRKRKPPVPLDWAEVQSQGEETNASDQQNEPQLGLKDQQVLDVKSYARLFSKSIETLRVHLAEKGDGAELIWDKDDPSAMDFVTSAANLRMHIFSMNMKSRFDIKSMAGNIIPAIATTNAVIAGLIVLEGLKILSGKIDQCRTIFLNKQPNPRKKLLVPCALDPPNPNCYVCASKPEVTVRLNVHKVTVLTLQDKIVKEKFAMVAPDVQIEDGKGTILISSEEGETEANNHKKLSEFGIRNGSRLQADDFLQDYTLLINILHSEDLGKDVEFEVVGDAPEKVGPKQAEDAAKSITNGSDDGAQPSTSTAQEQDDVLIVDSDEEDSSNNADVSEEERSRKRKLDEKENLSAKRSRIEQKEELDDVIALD
# T1 sequence (Q9UBE0 1-346): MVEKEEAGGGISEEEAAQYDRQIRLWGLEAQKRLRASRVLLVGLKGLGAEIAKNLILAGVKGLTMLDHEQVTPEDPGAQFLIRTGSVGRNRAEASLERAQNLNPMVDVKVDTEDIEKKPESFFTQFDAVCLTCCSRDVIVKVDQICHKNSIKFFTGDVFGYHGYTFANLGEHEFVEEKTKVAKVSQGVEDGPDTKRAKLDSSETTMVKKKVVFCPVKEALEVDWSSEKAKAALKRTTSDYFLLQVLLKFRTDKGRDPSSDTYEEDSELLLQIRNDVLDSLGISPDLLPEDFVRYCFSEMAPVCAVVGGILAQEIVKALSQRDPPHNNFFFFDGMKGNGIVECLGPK
# Assay: SUMO IF: in vitro inhibitory activity assay against SAE in HCT116 cells (SUMO-2/3 immunofluorescence)
# Assay type: cell-based
# Conditions: class symbols, 6 h at 37° C.
# Procedure: Biological Example 1. In Vitro Inhibitory Activity Assay of Compounds of the Present Disclosure Against SAE
# HCT116 cells were seeded into a 96-well black transparent bottom plate at about 20000/well with 90 μL per well. The cells were incubated at 37° C. overnight for 24 h. The test compounds were 10-fold diluted to give a final concentration, and 10 μL of the diluted compounds was added to each well of the cell culture plate. The mixture was incubated at 37° C. for 6 h. The cells were then washed gently, the culture medium was discarded, and the cells were washed once with 200 μL of 0.1% PBST. 50 μL of 4% PFA was added to each well, and the cells were immobilized at room temperature for 20 min, and then washed with PBS 2-3 times. 50 μL of 0.2% Triton X-100 was added to each well, and the cells were left to stand at room temperature for 15 min and washed with 0.1% PBST 3 times. 100 μL of 3% BSA (0.6 g BSA+20 mL PBS) was added to each well, and the mixture was blocked at 37° C. for 30 min. After the blocking was completed, the liquid was removed and a primary antibody (SUMO-2/3 (18H8) Rabbit mAb, 1:400 dilution) was prepared with 1% BSA. 30 μL of the diluted primary antibody was added to each well, and the mixture was incubated at 4° C. overnight. The cells were washed 3 times with 200 μL of 0.1% PBST. A FITC secondary antibody (Fluorescein (FITC)-conjugated Affinipure Goat Anti-Rabbit IgG (H+L), 1:300 dilution) was further prepared with 1% BSA, and 40 μL of the diluted secondary antibody was added to each well. The mixture was incubated at room temperature in the dark for 2 h, and then the cells were washed 4 times with 0.1% PBST. The fluorescence signal of the sample was detected and compared to the DMSO group, and the inhibition rate and IC50 were calculated.
row,SMILES,IC50 [nM]
1,Cc1sc(C(=O)c2cncnc2N[C@H]2C[C@H](O)[C@@H](COS(N)(=O)=O)[C@@H]2F)cc1C1NCCc2ccccc21 (stereo partly drawn) [Compound 229],> 200
2,Cc1sc(C(=O)c2cncnc2N[C@H]2C[C@H](O)[C@@H](COS(N)(=O)=O)[C@@H]2F)cc1[C@@H]1NCCc2ccccc21 [Compound 230],50 to 200
3,Cc1sc(C(=O)c2cncnc2N[C@H]2C[C@H](O)[C@@H](COS(N)(=O)=O)[C@@H]2F)cc1[C@H]1NCCc2ccccc21 [Compound 231],> 200
4,Cc1sc(C(=O)c2cncnc2N[C@H]2C[C@H](O)[C@@H](COS(N)(=O)=O)[C@@H]2F)cc1C1NCCc2ccc(F)cc21 (stereo partly drawn) [Compound 235],> 200
5,Cc1sc(C(=O)c2cncnc2N[C@H]2C[C@H](O)[C@@H](COS(N)(=O)=O)[C@@H]2F)cc1C1NCCc2ccc(C#N)cc21 (stereo partly drawn) [Compound 238],> 200
6,Cc1sc(C(=O)c2cncnc2N[C@H]2C[C@H](O)[C@@H](COS(N)(=O)=O)[C@@H]2F)cc1[C@@H]1NCCc2ccc(C#N)cc21 [Compound 239],50 to 200
7,Cc1sc(C(=O)c2cncnc2N[C@H]2C[C@H](O)[C@@H](COS(N)(=O)=O)[C@@H]2F)cc1[C@H]1NCCc2ccc(C#N)cc21 [Compound 240],> 200
8,Cc1ccc2c(c1)C(c1cc(C(=O)c3cncnc3N[C@H]3C[C@H](O)[C@@H](COS(N)(=O)=O)[C@@H]3F)sc1C)NCC2 (stereo partly drawn) [Compound 241],50 to 200
9,Cc1sc(C(=O)c2cncnc2N[C@H]2C[C@H](O)[C@@H](COS(N)(=O)=O)[C@@H]2F)cc1C1NCCc2ccc(C3CC3)cc21 (stereo partly drawn) [Compound 242],50 to 200
10,COc1ccc2c(c1)C(c1cc(C(=O)c3cncnc3N[C@H]3C[C@H](O)[C@@H](COS(N)(=O)=O)[C@@H]3F)sc1C)NCC2 (stereo partly drawn) [Compound 243],> 200
11,Cc1sc(C(=O)c2cncnc2N[C@H]2C[C@H](O)[C@@H](COS(N)(=O)=O)[C@@H]2F)cc1C1NCCc2ccc(C(F)(F)F)cc21 (stereo partly drawn) [Compound 244],50 to 200
12,Cc1sc(C(=O)c2cncnc2N[C@H]2C[C@H](O)[C@@H](COS(N)(=O)=O)[C@@H]2F)cc1C1NCCc2cc(F)c(F)cc21 (stereo partly drawn) [Compound 245],50 to 200
13,Cc1sc(C(=O)c2cncnc2N[C@H]2C[C@H](O)[C@@H](COS(N)(=O)=O)[C@@H]2F)cc1C1NCCc2cc(F)c(Cl)cc21 (stereo partly drawn) [Compound 246],50 to 200
14,Cc1sc(C(=O)c2cncnc2N[C@H]2C[C@H](O)[C@@H](COS(N)(=O)=O)[C@H]2F)cc1C1NCCc2cc(Cl)c(Cl)cc21 (stereo partly drawn) [Compound 247],50 to 200
15,Cc1cc2c(cc1Cl)C(c1cc(C(=O)c3cncnc3N[C@H]3C[C@H](O)[C@@H](COS(N)(=O)=O)[C@@H]3F)sc1C)NCC2 (stereo partly drawn) [Compound 248],50 to 200
16,Cc1sc(C(=O)c2cncnc2N[C@H]2C[C@H](O)[C@@H](COS(N)(=O)=O)[C@@H]2F)cc1C1NCCc2cc(C#N)c(Cl)cc21 (stereo partly drawn) [Compound 249],50 to 200
17,COc1cc2c(cc1Cl)C(c1cc(C(=O)c3cncnc3N[C@H]3C[C@H](O)[C@@H](COS(N)(=O)=O)[C@@H]3F)sc1C)NCC2 (stereo partly drawn) [Compound 250],50 to 200
18,Cc1sc(C(=O)c2cncnc2N[C@H]2C[C@H](O)[C@@H](COS(N)(=O)=O)[C@@H]2F)cc1C1NCCc2cc(F)c(Cl)c(F)c21 (stereo partly drawn) [Compound 251],50 to 200
19,Cc1sc(C(=O)c2cncnc2N[C@H]2C[C@H](O)[C@@H](COS(N)(=O)=O)[C@@H]2F)cc1C1NCCc2cc(Cl)c(F)cc21 (stereo partly drawn) [Compound 252],50 to 200
20,Cc1sc(C(=O)c2cncnc2N[C@H]2C[C@H](O)[C@@H](COS(N)(=O)=O)[C@@H]2F)cc1C1NCCc2ccncc21 (stereo partly drawn) [Compound 253],50 to 200

row,SMILES,IC50 [nM]
1,Cc1sc(C(=O)c2cncnc2N[C@H]2C[C@H](O)[C@@H](COS(N)(=O)=O)[C@@H]2F)cc1C1NCCc2cc(Cl)ncc21 (stereo partly drawn) [Compound 254],50 to 200
2,Cc1sc(C(=O)c2cncnc2N[C@H]2C[C@H](O)[C@@H](COS(N)(=O)=O)[C@@H]2F)cc1C1NCCc2cnc(Cl)cc21 (stereo partly drawn) [Compound 255],50 to 200
3,Cc1sc(C(=O)c2cncnc2N[C@H]2C[C@H](O)[C@@H](COS(N)(=O)=O)[C@@H]2F)cc1C1OCc2ccc(Cl)cc21 (stereo partly drawn) [Compound 256],> 200
4,Cc1sc(C(=O)c2cncnc2N[C@H]2C[C@H](O)[C@@H](COS(N)(=O)=O)[C@@H]2F)cc1C1NCc2ccc(Cl)cc21 (stereo partly drawn) [Compound 257],> 200
5,NS(=O)(=O)OC[C@H]1[C@H](F)[C@@H](Nc2ncncc2C(=O)c2cc(C3NCCc4ccc(Cl)cc43)c(Cl)s2)C[C@@H]1O (stereo partly drawn) [Compound 258],50 to 200
6,C#Cc1sc(C(=O)c2cncnc2N[C@H]2C[C@H](O)[C@@H](COS(N)(=O)=O)[C@@H]2F)cc1C1NCCc2ccc(Cl)cc21 (stereo partly drawn) [Compound 259],50 to 200
7,CCc1sc(C(=O)c2cncnc2N[C@H]2C[C@H](O)[C@@H](COS(N)(=O)=O)[C@@H]2F)cc1C1NCCc2ccc(Cl)cc21 (stereo partly drawn) [Compound 260],50 to 200
8,C=Cc1sc(C(=O)c2cncnc2N[C@H]2C[C@H](O)[C@@H](COS(N)(=O)=O)[C@@H]2F)cc1C1NCCc2ccc(Cl)cc21 (stereo partly drawn) [Compound 261],50 to 200
9,COc1sc(C(=O)c2cncnc2N[C@H]2C[C@H](O)[C@@H](COS(N)(=O)=O)[C@@H]2F)cc1C1NCCc2ccc(Cl)cc21 (stereo partly drawn) [Compound 262],50 to 200
10,CN(C)c1sc(C(=O)c2cncnc2N[C@H]2C[C@H](O)[C@@H](COS(N)(=O)=O)[C@@H]2F)cc1C1NCCc2ccc(Cl)cc21 (stereo partly drawn) [Compound 263],50 to 200
11,Nc1sc(C(=O)c2cncnc2N[C@H]2C[C@H](O)[C@@H](COS(N)(=O)=O)[C@@H]2F)cc1C1NCCc2ccc(Cl)cc21 (stereo partly drawn) [Compound 264],50 to 200
12,Cc1sc(C(=O)c2cncnc2N[C@H]2C[C@H](O)[C@@H](COS(N)(=O)=O)[C@@H]2F)cc1C1NCC2(CC2)c2ccc(Cl)cc21 (stereo partly drawn) [Compound 265],50 to 200
13,Cc1sc(C(=O)c2cncnc2N[C@H]2C[C@H](O)[C@@H](COS(N)(=O)=O)[C@@H]2F)cc1C1NC2(CC2)Cc2ccc(Cl)cc21 (stereo partly drawn) [Compound 266],50 to 200
14,Cc1sc(C(=O)c2cncnc2N[C@H]2C[C@H](O)[C@@H](COS(N)(=O)=O)[C@@H]2F)cc1C1NC=Cc2ccc(Cl)cc21 (stereo partly drawn) [Compound 267],50 to 200
15,NS(=O)(=O)OC[C@H]1[C@H](F)[C@@H](Nc2ncncc2C(=O)c2cc(C3NCCc4ccc(Cl)cc43)c(C(F)(F)F)s2)C[C@@H]1O (stereo partly drawn) [Compound 268],50 to 200
16,[2H]C1(c2cc(C(=O)c3cncnc3N[C@H]3C[C@H](O)[C@@H](COS(N)(=O)=O)[C@@H]3F)sc2C)NCCc2ccc(Cl)cc21 (stereo partly drawn) [Compound 269],50 to 200
17,Cc1sc(C(=O)c2cncnc2N[C@H]2C[C@H](O)[C@@H](COS(N)(=O)=O)[C@@H]2F)cc1C1(C)NCCc2ccc(Cl)cc21 (stereo partly drawn) [Compound 270],50 to 200
18,NS(=O)(=O)OC[C@H]1[C@H](F)[C@@H](Nc2ncncc2C(=O)c2cc3c(s2)CSCC32NCCc3ccccc32)C[C@@H]1O (stereo partly drawn) [Compound 294],> 200
19,NS(=O)(=O)OC[C@H]1[C@H](F)[C@@H](Nc2ncncc2C(=O)c2cc3c(s2)CSC[C@@]32NCCc3ccccc32)C[C@@H]1O [Compound 295],> 200

# Same assay, conditions: numeric values, 6 h at 37° C.
row,SMILES,IC50 [nM]
1,Cc1sc(C(=O)c2cncnc2N[C@H]2C[C@H](O)[C@@H](COS(N)(=O)=O)[C@@H]2F)cc1[C@H]1NCCc2ccc(Cl)cc21 [Compound 234],> 1000
2,Cc1sc(C(=O)c2cncnc2N[C@H]2C[C@H](O)[C@@H](COS(N)(=O)=O)[C@@H]2F)cc1[C@@H]1NCCc2ccc(F)cc21 [Compound 236],73.1
3,Cc1sc(C(=O)c2cncnc2N[C@H]2C[C@H](O)[C@@H](COS(N)(=O)=O)[C@@H]2F)cc1[C@H]1NCCc2ccc(F)cc21 [Compound 237],> 1000
